Patent publication US20200147059A1, “NEW THERAPEUTIC USES OF ENZYME INHIBITORS” (Proximagen, LLC, priority 2017, published 2020)
One block for each molecule: values may come before it.

Tests used:
human VAP-1 (SSAO) = molecular target: T1, human VAP-1 (SSAO) (Homo sapiens, UniProt Q16853); assay: VAP-1 Inhibition Assay; type: biochemical; settings: purified recombinantly expressed human VAP-1 (SSAO), benzylamine substrate, room temperature
T1 construct: made in house
T1 sequence (Q16853 29-763 limits assumed): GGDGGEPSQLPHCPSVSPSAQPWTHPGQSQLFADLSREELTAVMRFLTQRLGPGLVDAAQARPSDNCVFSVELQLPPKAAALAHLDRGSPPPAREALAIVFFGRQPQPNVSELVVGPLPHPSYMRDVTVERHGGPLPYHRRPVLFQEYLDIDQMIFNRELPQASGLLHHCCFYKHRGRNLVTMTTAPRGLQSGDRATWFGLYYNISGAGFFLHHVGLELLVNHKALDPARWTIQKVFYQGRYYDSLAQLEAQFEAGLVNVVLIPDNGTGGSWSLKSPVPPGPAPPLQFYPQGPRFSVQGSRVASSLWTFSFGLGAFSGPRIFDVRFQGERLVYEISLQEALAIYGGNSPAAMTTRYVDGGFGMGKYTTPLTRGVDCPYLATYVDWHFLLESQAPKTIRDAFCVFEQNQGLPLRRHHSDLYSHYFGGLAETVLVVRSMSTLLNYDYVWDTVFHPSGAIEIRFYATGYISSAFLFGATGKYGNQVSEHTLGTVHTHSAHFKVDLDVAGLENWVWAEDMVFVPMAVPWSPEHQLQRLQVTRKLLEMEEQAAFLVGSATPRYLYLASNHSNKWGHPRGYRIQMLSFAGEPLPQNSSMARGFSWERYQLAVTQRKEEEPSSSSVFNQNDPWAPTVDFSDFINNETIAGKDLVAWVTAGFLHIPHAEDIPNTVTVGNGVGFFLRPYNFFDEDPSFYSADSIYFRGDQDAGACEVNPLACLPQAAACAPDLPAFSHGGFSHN
Procedure: This assay is performed at room temperature with purified recombinantly expressed human VAP-1 (SSAO). Enzyme was prepared essentially as described in Ohman et al. (Protein Expression and Purification 46 (2006) 321-331). The enzyme activity is assayed with benzylamine as substrate by measuring either benzaldehyde production, using 14C-labeled substrate, or by utilizing the production of hydrogen peroxide in a horseradish peroxidise (HRP) coupled reaction. Briefly, test compounds are dissolved in dimethyl sulfoxide (DMSO) to a concentration of 10 mM. Dose-response measurements are assayed by either creating 1:10 serial dilutions in DMSO to produce a 7 point curve or by making 1:3 serial dilutions in DMSO to produce 11 point curves. The top concentrations are adjusted depending on the potency of the compounds and subsequent dilution in reaction buffer yielded a final DMSO concentration ≤2%.
Hydrogen peroxide detection: In a horseradish peroxidise (HRP) coupled reaction, hydrogen peroxide oxidation of 10-acetyl-3,7-dihydroxyphenoxazine produces resorufin, which is a highly fluorescent compound (Zhout and Panchuk-Voloshina. Analytical Biochemistry 253 (1997) 169-174; AmplexR Red Hydrogen Peroxide/peroxidise Assay kit, Invitrogen A22188). Enzyme and compounds in 50 mM sodium phosphate, pH 7.4 are set to pre-incubate in flat-bottomed microtiter plates for approximately 15 minutes before initiating the reaction by addition of a mixture of HRP, benzylamine and Amplex reagent. Benzylamine concentration is fixed at a concentration corresponding to the Michaelis constant, determined using standard procedures. Fluorescence intensity is then measured at several time points during 1-2 hours, exciting at 544 nm and reading the emission at 590 nm. For the human SSAO assay final concentrations of the reagents in the assay wells are: SSAO enzyme 1 mg/ml, benzylamine 100 μM, Amplex reagent 20 μM, HRP 0.1 U/mL and varying concentrations of test compound. The inhibition is measured as % decrease of the signal compared to a control without inhibitor (only diluted DMSO). The background signal from a sample containing no SSAO enzyme is subtracted from all data points. Data is fitted to a four parameter logistic model and IC50 values are calculated, for example by using the GraphPad Prism 4 or XLfit 4 programs.

VAP-1 = molecular target: T2, VAP-1 (Homo sapiens, UniProt Q16853); settings: known; cited from earlier work
T2 sequence (Q16853 1-763): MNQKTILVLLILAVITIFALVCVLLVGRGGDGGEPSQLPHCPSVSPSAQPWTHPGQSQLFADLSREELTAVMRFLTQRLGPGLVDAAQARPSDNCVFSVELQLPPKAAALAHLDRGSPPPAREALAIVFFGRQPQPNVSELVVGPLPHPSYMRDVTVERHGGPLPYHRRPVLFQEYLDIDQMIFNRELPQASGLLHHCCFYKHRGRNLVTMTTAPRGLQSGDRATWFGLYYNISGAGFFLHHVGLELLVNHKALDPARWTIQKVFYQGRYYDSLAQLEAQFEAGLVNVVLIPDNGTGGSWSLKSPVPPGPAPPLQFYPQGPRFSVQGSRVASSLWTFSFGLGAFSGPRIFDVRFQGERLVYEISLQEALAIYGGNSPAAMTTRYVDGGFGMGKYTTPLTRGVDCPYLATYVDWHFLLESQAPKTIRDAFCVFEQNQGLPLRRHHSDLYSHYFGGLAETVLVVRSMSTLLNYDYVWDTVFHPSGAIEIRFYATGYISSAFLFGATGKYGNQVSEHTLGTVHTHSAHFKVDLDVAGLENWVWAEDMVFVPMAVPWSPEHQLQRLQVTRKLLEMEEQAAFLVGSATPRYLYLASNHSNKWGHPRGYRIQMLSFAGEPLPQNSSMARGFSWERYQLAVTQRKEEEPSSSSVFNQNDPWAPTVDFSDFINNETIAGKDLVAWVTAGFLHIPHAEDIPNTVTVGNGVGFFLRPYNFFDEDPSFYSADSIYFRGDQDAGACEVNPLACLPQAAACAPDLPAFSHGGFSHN

[1] = CNS penetration (brain:plasma ratio); type: in vivo; settings: rat, whole brain homogenate and plasma, intravenous; total brain:plasma ratio adjusted for plasma protein binding and brain tissue binding; read-out: unbound (free) brain:plasma ratio
Source text: Central nervous system (CNS) penetration of compounds of the invention can be determined by for example, intravenous dosing in a rat and subsequent quantitative LCMS analysis of the drug concentration in plasma and whole brain homogenate. The total brain:plasma ratio can then be calculated. This total ratio can be adjusted for plasma protein binding (PPB) and brain tissue binding (BTB) determined by standard means to give an unbound (free) brain:plasma ratio. For example, Compound 4 of the invention has an unbound (free) brain:plasma ratio of 0.72, indicating good CNS penetration of the compound.

sumatriptan-primed rats [2] = assay: stress induced allodynia in a rat model of medication overuse headache (MOH); type: in vivo; settings: bright light stress, oral 33.3 mg/ml, 3 ml/kg, measured day 21 over 5 h
Procedure: The effects of compounds on stress induced allodynia in a rat model of medication overuse headache (MOH) The effects of compounds on stress induced cephalic and extracephalic allodynia in sumatriptan-primed rats was tested.
Sprague Dawley rats were implanted with osmotic minipumps (model 2001; Alzet, Cupertino, Calif., USA) providing continuous infusion of sumatriptan (0.6 mg/kg/day, s.c) or vehicle (saline, 0.9% NaCl) for 7 days. Mechanical facial (FIG. 1; A) and hindpaw (FIG. 1; C) allodynia was measured during a 19 day time course.
On day 20, when mechanical thresholds are at basal levels, all rats received either 4-{5-[3-(4-Fluorophenyl)-3H-imidazo[4,5-c]pyridin-2-yl]pyridin-2-yl}morpholine (compound 4) or vehicle orally (33.3 mg/ml, Dose 3 ml/kg) and then they were exposed to bright lights for 1 h (bright light stress; BLS). Rats received a second dose of the assigned treatment in the afternoon.
On day 21 all rats received a third dose of the assigned treatment and then they were again exposed to BLS for 1 h. Mechanical facial (FIG. 1; B) and hindpaw (FIG. 1; D) allodynia was measured over a 5 h time course.
Sumatriptan-treated, but not saline-treated, rats developed generalized allodynia during minipump infusion measured in the periorbital and hindpaw regions (FIG. 1; A, C; day 6). Mechanical thresholds returned to baseline on days 10 and 19. […]

[3] = phase IIb chronic migraine study; cited from earlier work
sumatriptan-primed rats [4] = settings: Kopruszinski et al, Cephalalgia, 2017; cited from earlier work

Molecule: C[C@@](Cc1ccc(O)c(O)c1)(NN)C(=O)O [(S)-Carbidopa, reference compound]
IC50 (human VAP-1 (SSAO)): 142 nM
inhibition of VAP-1 (VAP-1): very good inhibitors of VAP-1

Molecule: C=C(CNN)c1ccccc1 [LJP1207, reference compound]
IC50 (human VAP-1 (SSAO)): 34 nM

Molecule: NC(CO)C(=O)NNCc1ccc(O)c(O)c1O (stereo not drawn) [benserazide, Benserazide]
inhibition of VAP-1 (VAP-1): very good inhibitors of VAP-1

B1: TEV48125: a fully humanised CGRP antibody (antibody, chains of the INN, looked up, V domains shown)
VH: EVQLVESGGGLVQPGGSLRLSCAASGFTFSNYWISWVRQAPGKGLEWVAEIRSESDASATHYAEAVKGRFTISRDNAKNSLYLQMNSLRAEDTAVYYCLAYFDYGLAIQNYWGQGTLVTVSS
VL: EIVLTQSPATLSLSPGERATLSCKASKRVTTYVSWYQQKPGQAPRLLIYGASNRYLGIPARFSGSGSGTDFTLTISSLEPEDFAVYYCSQSYNYPYTFGQGTKLEIK
efficacy in human clinical trials [3]: efficacious
efficacy in the MOH model (sumatriptan-primed rats [4]): efficacious

Now from value to molecule, other results behind:

IC50 (human VAP-1 (SSAO)): 31 nM
Molecule: CC(=O)N1CCN(c2ccc(-c3nc4ccncc4n3-c3ccc(F)cc3)cn2)CC1 [Compound 2, 1-(4-{5-[3-(4-Fluorophenyl)-3H-imidazo[4,5-c]pyridin-2-yl]pyridin-2-yl}piperazin-1-yl)ethan-1-one]

IC50 (human VAP-1 (SSAO)): 4 nM
Molecule: CS(=O)(=O)N1CCN(c2ccc(-c3nc4ccncc4n3-c3ccc(F)cc3)cn2)CC1 [Compound 3, 1-{5-[3-(4-Fluorophenyl)-3H-imidazo[4,5-c]pyridin-2-yl]pyridin-2-yl}-4-methanesulfonylpiperazine]

unbound brain:plasma ratio (Kp,uu) [1]: 0.72
IC50 (human VAP-1 (SSAO)): 13 nM
Molecule: Fc1ccc(-n2c(-c3ccc(N4CCOCC4)nc3)nc3ccncc32)cc1 [Compound 4, 4-{5-[3-(4-Fluorophenyl)-3H-imidazo[4,5-c]pyridin-2-yl]pyridin-2-yl}morpholine]
stress-induced hindpaw allodynia (sumatriptan-primed rats [2]): significantly reduced
stress-induced periorbital allodynia (sumatriptan-primed rats [2]): significantly reduced
